Assay: mn = molality of the nth substance listed, in mol/kg
Conditions: 101 kPa, Liquid; for speed of sound: Sing-around technique in a fixed-path interferometer; for mass density: Vibrating tube method

CCCCCCCC[N+](C)(CCCCCCCC)CCCCCCCC.O=S(=O)([N-]S(=O)(=O)C(F)(F)F)C(F)(F)F + CCO
Conditions | mass density, 298.15 K [kg/m3] | mass density, 303.15 K [kg/m3] | mass density, 308.15 K [kg/m3] | mass density, 313.15 K [kg/m3] | speed of sound, 298.15 K [m/s] | speed of sound, 303.15 K [m/s] | speed of sound, 308.15 K [m/s] | speed of sound, 313.15 K [m/s]
m1 = 0.022 | 787.5 | 783.3 | 778.6 | 774 | 1150 | 1129 | 1099 | 1087
m1 = 0.0465 | 790.5 | 786.3 | 781.5 | 777 | 1151 | 1130 | 1100 | 1088
m1 = 0.0692 | 793.7 | 789.3 | 784.3 | 779.5 | 1152 | 1131 | 1101 | 1089
m1 = 0.1378 | 805.5 | 801.2 | 797 | 792.6 | 1154 | 1134 | 1116 | 1104
m1 = 0.2691 | 825.5 | 821.5 | 816.6 | 812 | 1158 | 1140 | 1122 | 1110
m1 = 0.4006 | 844.7 | 840.6 | 836.4 | 832.3 | 1170 | 1149 | 1134 | 1116
m1 = 0.6112 | 868.3 | 864.6 | 860.4 | 856.3 | 1176 | 1158 | 1140 | 1125
m1 = 0.8299 | 883.8 | 879.9 | 875.8 | 866.2 | 1179 | 1161 | 1146 | 1131
m1 = 1.008 | 892.6 | 888.9 | 884.8 | 880.7 | 1182 | 1164 | 1149 | 1134
m1 = 1.28 | 910.2 | 906.5 | 902.4 | 898.3 | 1188 | 1170 | 1158 | 1146

CCCCCCCC[N+](C)(CCCCCCCC)CCCCCCCC.O=S(=O)([N-]S(=O)(=O)C(F)(F)F)C(F)(F)F + CCOC(C)=O
Conditions | mass density, 298.15 K [kg/m3] | mass density, 303.15 K [kg/m3] | mass density, 308.15 K [kg/m3] | mass density, 313.15 K [kg/m3] | speed of sound, 298.15 K [m/s] | speed of sound, 303.15 K [m/s] | speed of sound, 308.15 K [m/s] | speed of sound, 313.15 K [m/s]
m1 = 0.0193 | 897 | 891.1 | 885.3 | 878.9 | 1142 | 1119 | 1097 | 1074
m1 = 0.0434 | 900 | 894.1 | 888.3 | 882 | 1143 | 1120 | 1098 | 1076
m1 = 0.0692 | 903 | 897.1 | 891.3 | 885 | 1144 | 1122 | 1104 | 1077
m1 = 0.1377 | 910.7 | 904.8 | 899.1 | 892.9 | 1149 | 1125 | 1107 | 1080
m1 = 0.2691 | 923.8 | 918 | 912.4 | 906.5 | 1152 | 1128 | 1110 | 1083
m1 = 0.4006 | 935.1 | 929.4 | 924 | 918.3 | 1155 | 1131 | 1113 | 1086
m1 = 0.6119 | 950.4 | 944.9 | 939.7 | 934.5 | 1161 | 1140 | 1116 | 1092
m1 = 0.8299 | 963.4 | 958.3 | 953.3 | 948.4 | 1164 | 1146 | 1122 | 1098
m1 = 1.006 | 972.5 | 967.5 | 962.6 | 957.9 | 1170 | 1158 | 1128 | 1107
m1 = 1.28 | 984.5 | 979.7 | 974.8 | 970.2 | 1179 | 1161 | 1137 | 1113
m1 = 2.132 | 1011.1 | 1006.9 | 1001.9 | 997 | 1200 | 1170 | 1152 | 1131
m1 = 2.999 | 1029.3 | 1025.5 | 1019.5 | 1013.8 | 1206 | 1182 | 1161 | 1140

Source: the NIST ThermoML archive (doi:10.1016/j.tca.2013.05.015)
